Results on one compound are retold here after patent publication US11352358B2, “FXR agonist” (XUANZHU BIOPHARMACEUTICAL CO., LTD., priority 2017, dated 2022).

Structures are written as SMILES. Marks after values point to notes of the source that are not given here.

By EC50 is commonly meant the concentration needed to bring the measured effect to its halfway point.

In series [1] the test system is high fat-induced NAFLD/NASH mice. The experiment in a line: High fat-induced NAFLD/NASH mice (Experimental Example 5). In kind it is in vivo, C57BL/6J male mice. The text has this:
Build of NAFLD/NASH (non-alcoholic fatty liver disease/nonalcoholic steatohepatitis) mouse models: six-week-old C57BL/6J male mice were fed with high-fat feed, and were weighed each week to record the body weights of the mice; and after high-fat feeding for 8 weeks, the mice were weighed to determine whether the modeling is successful.
According to the body weight values (40 g was generally considered as a screening critical point), the successfully-modeled mice were divided into a blank control group, a model control group and the compound 2-1 (1 mg/kg) group, wherein the average body weights of all groups were consistent, without any significant difference. The mice were administered once every day (QD) (8 # intragastric syringe) for 3 weeks.
24 hrs after the last administration, blood was sampled from the inner canthus; the sampled blood stood at room temperature for 1 to 2 hrs, and was centrifuged at 4,000 rpm for 15 mins, and the serum was collected; the mice were euthanized thereafter, and a large liver lobe and a small liver lobe were cut off and put into 10% neutral formalin, and the remainings were stored in a refrigerator at −80° C. For the detailed administration method, administration dosage and administration route, see the table below.
Route, dosage and regimen of administration in experiment for influence of compounds of the present invention on high fat-induced NAFLD/NASH mice
2.1 Experimental Observation Index • 1) Body weight: Weighing was performed once every week from the beginning of modeling. Weighing was performed once every week after administration. • 2) Analysis of morphological and pathological changes of livers: Liver tissues were separated, collected and photographed. The livers were weighed, and ratios of liver weight/body weight were calculated. The tissue was sliced and stained by H&E (NAFLD score, NAS). • 3) Assay of biochemical indexes of livers: TG in the livers was extracted according to the manual of a tissue cell triglyceride assay kit (purchased from Applygen Technologies Inc. E1013), and assayed. • 4) Assay of biochemical indexes of serums: LDL in serums was assayed with a full-automatic biochemical analyzer (Hitachi 7180, model: X594).
Data were represented by mean±S.E.M., and one-way analysis of variance (ANOVA) followed LSD or independent-sample T test were performed on the statistical data with statistical software SPSS 16.0. Statistical differences were tested, and p<0.05 was defined as a significant difference.

The test system of another series is SHP mRNA in AML12 cells. As to the kind of experiment: Relative expression of SHP mRNA in AML12 cells, EC50 (Experimental Example 4). Format: cell-based. Particulars: Mus musculus, 24 hrs. The method, then:
compounds of the present invention (for their chemical names and preparation methods, see the preparation example for each compound).
AML12 cells: mouse liver cells.
Control: compound 1-1B with a structure shown as follows, prepared according to a prior art method (for detailed information, see patent application WO2012087519A1).
Cells were digested with pancreatin and collected, and the concentration of the cells was determined; according to the counting result, the cells were resuspended to a density of 7.5×10^4 cells/mL; 1 mL of the cell suspension was inoculated in each well of a 12-well cell culture plate; and the culture plate was placed in an incubator and cultured under the conditions of 37° C. and 5% CO2 for 24 hrs.
The compound were diluted to 1000, 200, 8, 1.6, 0.32, 0.128, 0.0256 and 0.00512 μM with DMSO. Compound solutions of different concentrations obtained in the previous step were further diluted by 1000 times with media to obtain working solutions, and a medium containing 0.1% of DMSO was adopted as a control group. The cell culture plate was taken out from the incubator, the medium was removed, and the working solutions and the control medium were added. The culture plate was placed back into the incubator and cultured under the conditions of 37° C. and 5% CO2 for 24 hrs.
after treatment for 24 hrs, the cell culture plate was taken out from the incubator, and the medium was removed from the plate; the cells were rinsed three times with pre-cooled (4° C.) PBS (phosphate buffer solution); and 200 μL of pancreatin (preheated to 37° C.) was added to each well, and the plate was then gently shaken such that the pancreatin could evenly cover the plate bottom. The culture plate was then placed back into the incubator and incubated until the cells were separated from the plate bottom. 1 mL of medium was added to terminate digestion. […]

For the compound `O=C(O)c1ccc2nc(N3C[C@@H]4C[C@H]3C[C@H]4OCc3c(-c4c(Cl)cccc4Cl)noc3C3CC3)sc2c1` [Compound 2-1, 2-((1S, 4S, 5R)-5-((5-cyclopropyl-3-(2,6-dichlorophenyl)isoxazol-4-yl)methoxy)-2-azabicyclo[2.2.1]heptan-2-yl)benzo[d]thiazole-6-carboxylic acid], the “Liver Weight/Body Weight” value in series [1] (1 mg/kg p.o. QD for 3 weeks, increased or decreased ratio of the experimental group to the model group) is recorded as −9%*. In series [1] (H&E liver slices, 1 mg/kg p.o. QD for 3 weeks, model group 3, p<0.001), the “NAFLD Activity Score” value is 1. Moreover, in series [1] (at the administration dosage (1 mg/kg)), the “effect on the NAFLD symptom of the mice” value was “good improving effect”. Also, the TG in series [1] (liver TG, 1 mg/kg p.o. QD for 3 weeks, increased or decreased ratio of the experimental group to the model group) is on record as −53%*. In series [1] (serum, 1 mg/kg p.o. QD for 3 weeks, model group 0.31, p<0.01), this compound returned an LDL of 0.21. In the series on SHP mRNA in AML12 cells, this compound had an EC50 of 0.76 nM.
